The structures appear in SMILES notation.

Experimental findings from patent US12195804B2, “Treatment of squamous cell carcinoma” (Board of Regents, The University of Texas System, priority 2018, dated 2025) are described below.

Type in all cases: cell-based, human
One assay has as its system HNSCC cell lines. Nature of the assay: Apoptosis assays (Annexin V/propidium iodide, BrdU TUNEL, cleaved PARP/caspase 3). The conditions noted are these: 50 nM. The protocol:
(§1) FIGS. 7A-7D: PI3K/mTOR signaling inhibition induces cell death in NOTCH1^MUT but not NOTCH1^WT head and neck squamous cell carcinoma (HNSCC) cell lines in vitro. FIG. 7A. Annexin V/propidium iodide or BrDU-terminal deoxynucleotidyl transferase (TdT) dUTP nick-end labeling (TUNEL) assays were used to measure apoptosis in HNSCC cells with the indicated NOTCH1 and PIK3CA mutations, which were treated with 50 nM GSK2126458 (GSK212) for 24 or 48 hours, respectively. Values are the means±standard deviations of three independent experiments. *p<0.05, unpaired two-tailed Student t-test. FIG. 7B. Western blotting of cleaved PARP (Cl-PARP) and cleaved caspase 3 (Cl-Caspase 3) levels in mutant and wild type cells after GSK212 treatment for 48 hours. FIG. 7C. NOTCH1^MUT and NOTCH1^WT HNSCC cells were plated sparsely and treated with GSK212 at the indicated concentrations for 48 hours. At 14-21 days after treatment, the cells were fixed and stained, images were captured using the GelCount Tumour Colony Counter, and colony numbers and the colorimetric intensity of the colonies were determined by measuring the optical density (OD) at 570 nm. Values are the means±standard deviations of three independent experiments. *p<0.001, unpaired two-tailed Student t-test. FIG. 7D. Three NOTCH1^WT lines (black text and bars) and three NOTCH1^MUT lines (red text and bars) were treated with increasing concentrations of GSK212 for 4 hours, and levels of PI3K/mTOR pathway proteins were measured by Western blot analysis.
Western blot analysis. Western blot analysis was performed as described previously (Ferrarotto et al., 2016). In brief, cells were lysed with ice-cold lysis buffer, and the lysates were centrifuged at 20,000×g for 10 minutes at 4° C. Cell samples containing equal amounts of protein were resolved using sodium dodecyl sulfate-polyacrylamide gel electrophoresis, transferred to nitrocellulose membranes, and immunoblotted with different primary antibodies. Protein expression was detected using a horseradish peroxidase-conjugated secondary antibody (Bio-Rad, Hercules, CA) and electrochemiluminescence reagent (Amersham Biosciences, Pittsburg, PA).
Apoptosis and cell cycle assays. To measure apoptosis, we performed terminal deoxynucleotidyl transferase dUTP nick end labeling (TUNEL) staining with an APO-BRDU Kit (BD Biosciences, San Jose, CA) and Annexin V/propidium iodide staining with an FITC Annexin V Apoptosis Detection Kit (BD Pharmingen, San Diego, CA) as described previously (Chandarlapaty et al., 2011). […] Data were acquired with a three-laser, 10-color Gallios flow cytometer (Beckman Coulter, Brea, CA) and analyzed using Kaluza software (Beckman Coulter, Brea, CA). […]

The test system of assay [1] is PI3K/mTOR pathway proteins. Nature of the assay: Western blot of PI3K/mTOR pathway proteins. The following applies: 4 hours, NOTCH1WT and NOTCH1MUT lines. The protocol:
as §1, with “Western blotting of cleaved PARP (Cl-PARP) and cleaved caspase 3 (Cl-Caspase 3) levels in mutant and wild type cells after GSK212 treatment for 48 hours. FIG. 7C. NOTCH1^MUT and NOTCH1^WT HNSCC cells were plated sparsely and treated with GSK212 at the indicated concentrations for 48 hours.” left out, “Values are the means±standard deviations of three independent experiments. *p<0.001, unpaired two-tailed Student t-test. FIG. 7D.” left out
Western blot analysis. […] Protein expression was detected using a horseradish peroxidase-conjugated secondary antibody (Bio-Rad, Hercules, CA) and electrochemiluminescence reagent (Amersham Biosciences, Pittsburg, PA).

The next assay concerns PJ34 cells. Nature of the assay: CellTiter-Glo viability, PJ34 parental and NOTCH1 KO. The following applies: 72 hours. The protocol: FIGS. 9A-9D: NOTCH1 knockout (KO) sensitizes two NOTCH1^WT head and neck squamous cell carcinoma (HNSCC) cell lines to PI3K/mTOR pathway inhibition in vitro. Two NOTCH1^WT HNSCC cell lines (PJ34 and UMSCC49 [UM49]), parental cell lines, and NOTCH1 KO cell lines were treated with PI3K/mTOR pathway inhibitors. FIG. 9A. The CellTiter-Glo assay was used to assess the viability of cells treated for 72 hours with the indicated concentrations of GSK2126458 (GSK212). FIG. 9B. Western blot analysis of apoptosis markers, NOTCH1, and NOTCH intracellular domain (NICD) was performed after treatment with the indicated concentrations of GSK212 for 48 hours. FIG. 9C. Apoptosis in cells treated with 50 nM GSK212 or 200 nM BEZ235 for 48 hours was measured using an Annexin V/propidium iodide assay. Values are the means±standard deviations of three independent experiments. *p<0.05, unpaired two-tailed Student t-test. FIG. 9D. […] Colony areas as percentages of the control were measured using ImageJ. […]
Cell viability assay. […] Inhibitory concentration (ICs) and area under the curve (AUC) values were calculated using the drexplorer R package with a best-fit dose-response model (Zumsteg et al., 2016). The combination indices were calculated using the Chou-Talalay method (Cal et al., 2017) in CalcuSyn (Biosoft, Cambridge, UK). […]

Consider `COc1ncc(-c2ccc3nccc(-c4ccnnc4)c3c2)cc1NS(=O)(=O)c1ccc(F)cc1F` [GSK2126458], for which the “apoptosis in PDK1-overexpressing versus parental lines” value in the assay with HNSCC cell lines (24 or 48 hours, NOTCH1MUT cells overexpressing PDK1) is listed as “decreased apoptosis”. The apoptosis entry in the assay on HNSCC cell lines (24 or 48 hours, NOTCH1MUT lines) is recorded as “induced significant apoptosis”; with HNSCC cell lines (two NOTCH1WT/PIK3CAWT and three NOTCH1WT/PIK3CAMUT lines) it was “no apoptosis was detected”. In addition, the “target inhibition (PI3K/mTOR pathway proteins)” value in assay [1] was “dose-dependent target inhibition”. The 70% effect concentration (IC70) in the assay with PJ34 cells (PJ34 NOTCH1 KO) is 24 nM; in the assay with PJ34 cells (PJ34 parental), 100 nM.
